Measurements: patent publication US20260294915A1, “COMBINATION THERAPY COMPRISING A MAT2A INHIBITOR AND A TOPOISOMERASE INHIBITOR, A SPLICING INHIBITOR SULFONAMIDE, OR A KIF18 INHIBITOR” (IDEAYA BIOSCIENCES, INC., priority 2023, published 2026)
Like-named read-outs stand apart in the source and are kept apart here.

Experiments:
[1] = tested on: RT112/84 human bladder tumor cell-derived xenograft (CDX) model; test: Anti-tumor activity in RT112/84 mouse xenograft (CDX) model (Example 7); format: in vivo; settings: Compound A 10 mg/kg oral once per day
Description: (§1) All mouse studies were approved by the Institutional Animal Care and Use Committee (IACUC) based on guidelines from the National Institutes of Health (NIH). Mice were maintained under pathogen-free conditions, and food and water were provided ad libitum.
The anti-tumor effect of Compound A and irinotecan hydrochloride as single-agents or in combination was assessed in the RT112/84 human bladder tumor cell-derived xenograft (CDX) model. Cells were expanded in RPMI-1640 (Gibco, Catalog Number 11875093) with 10% fetal bovine serum. These cells were free of mycoplasma and authenticated by STR profiling. Five million cells in log growth phase were resuspended in Hanks Balanced Salt Solution containing 50% Matrigel and implanted subcutaneously into the flank of each recipient female Crl:NU-Foxnlnu mouse. Mice were housed in microisolator cages with corn cob bedding with additional enrichment consisting of sterile nesting material (Innovive) and Bio-huts (Bio-Serv). Water (Innovive) and diet (Teklad Global 19% Protein Extruded Diet 2919, Irradiated) were provided ad libitum. The environment was maintained on a 12-hour light cycle at approximately 68-72° F. and 40-60% relative humidity.
Tumor Volume (TV) was calculated using the following formula: TV (mm^3)=(width×width×length)/2. Tumor growth inhibition (TGI) was calculated by [(TV controlfinal−TV treatedfinal)/(TV controlfinal−TV controlinitial)×100]. TV was analyzed for statistical significance utilizing GraphPad Prism version 10.0.3. Repeated Measures 2-Way ANOVA with Tukey's Multiple Comparisons was utilized, and P-values were derived from data collected on Day 14 (date of Vehicle group termination) and were considered statistically significant if less than 0.05. Tumor regression was calculated by using the percent change in tumor volume from the final tumor volume measurement from Day 73 when compared to the initial tumor volume from Day 1. Tumor regression was defined as reduced TV on Day 73 compared to Day 1. Tumor regression rate was defined as the percentage of animals per group with tumor regression.
Mean tumor volume at dosing start was approximately 249 mm^3, with ten mice randomized to each treatment group. Mice were dosed orally, once per day, with Vehicle, Compound A at 10 mg/kg, or dosed for 3 consecutive days followed by 4 days holiday by intraperitoneal (IP) injection of Compound B at 5 mg/kg, or combination of Compound A and Compound B. The vehicle group was a combination of Vehicle A (for Compound A, 0.5% 400 cps methylcellulose with 0.5% Tween-80 in sterile water) and Vehicle B (for irinotecan hydrochloride, Saline).

[2] = tested on: MKN45 (RCB1001) human gastric tumor cell-derived xenograft (CDX) model; test: Anti-tumor activity in MKN45 gastric mouse xenograft (CDX) model (Example 8); format: in vivo; settings: Compound A 10 mg/kg oral once per day
Description: as §1
The anti-tumor effect of Compound A and irinotecan hydrochloride as single-agents or in combination was assessed in the MKN45 (RCB1001) human gastric tumor cell-derived xenograft (CDX) model. MKN45 was expanded in RPMI1640 with 10% fetal bovine serum. Cells were free of mycoplasma and authenticated by STR profiling, and ten million cells in log growth phase were resuspended in Hanks Balanced Salt Solution containing 50% Matrigel and implanted subcutaneously into the flank of each recipient female Crl:NU-Foxn1nu mouse. Mice were housed in microisolator cages with corn cob bedding with additional enrichment consisting of sterile nesting material (Innovive) and Bio-huts (Bio-Serv). Water (Innovive) and diet (Teklad Global 19% Protein Extruded Diet 2919, Irradiated) were provided ad libitum. The environment was maintained on a 12-hour light cycle at approximately 68-72° F. and 40-60% relative humidity.
Tumor Volume (TV) was calculated using the following formula: TV (mm^3)=(width×width×length)/2. Tumor growth inhibition (TGI) was calculated by [(TV controlfinal−TV treatedfinal)/(TV controlfinal−TV controlinitial)×100]. TV was analyzed for statistical significance utilizing GraphPad Prism version 10.2.2. Repeated Measures 2-Way ANOVA with Dunnet's Multiple Comparisons was utilized, and P-values were derived from data collected on the date of Vehicle group termination and were considered statistically significant if less than 0.05.
Mean tumor volume at dosing start was approximately 190 mm^3, with six mice randomized to each treatment group. Mice were dosed orally, once per day, with Vehicle, Compound A at 10 mg/kg, or dosed for 3 consecutive days followed by 4 days holiday by intraperitoneal (IP) injection of Compound B at 5 mg/kg or 10 mg/kg, or combination of Compound A and Compound B. The vehicle group was a combination of Vehicle A (for Compound A, 0.5% 400 cps methylcellulose with 0.5% Tween-80 in sterile water) and Vehicle B (for irinotecan hydrochloride, Saline).

SKGT4 = test: 10-day proliferation screen with Compound A pre-treatment (Example 3); format: cell-based; settings: read-out: Growth IC50
Panc 03.27 Parent = test: as above; format: cell-based; settings: Homo sapiens, read-out: Growth IC50
Description: (§2) A 10-day proliferation screen was performed in 15 pancreatic, non-small cell lung, and bladder cancer cell lines: 10 MTAP null and 5 MTAP wild-type. Optimal cell seeding for all cell lines was determined by assessing the growth over a range of seeding densities in a 384-well format to identify conditions that permitted proliferation for 10 days. […] Cells were incubated at 37° C. with 5% CO2 for 4 days to allow for target engagement of the pre-treatment compound. Maintaining the pre-treatment condition, cells were also treated with an 11-point, three-fold titration series of compounds from a chemically diverse library of 424 compounds. The combination compound concentrations ranged from 0.2 nM to 14,679 nM. A plate of cells was harvested at the time of combination compound addition to quantify the number of cells at the start of the combination (T0). For cell quantification, the harvested cells were lysed with CellTiter-Glo (CTG) (Promega) reagent according to the manufacturer's protocol and the chemiluminescent signal was detected on a Synergy Neo plate reader (ThermoFisher, serial #140715A). CTG estimates cell number through detection of cellular ATP levels. Cells were incubated with the drug combinations at 37° C. with 5% CO2 for an additional 6 days for a total of a 10-day assay including the pre-treatment. Cells were then lysed with CTG and the chemiluminescent signal was measured. CTG values obtained after the 10-day treatment were background subtracted, expressed as a percent of the T0 value, and plotted against compound concentration. Data were fit with a four-parameter equation to generate concentration response curves. Growth IC50 values and maximal growth inhibition were compared between the DMSO and the Compound A pre-treated cells for each combination titration. Combination hit calling was based on the observation of >2-fold shift in growth IC50 and/or greater than 20% […] in growth inhibition.

[3] = tested on: Panc 03.27 MTAP Knock-out Clone 31; test: as above; format: cell-based; settings: Homo sapiens, read-out: Growth IC50
Description: as §2

[4] = PANC-03-27, Cmpd A pre-treatment 15 nM

Compound: Nc1nc(=O)n(-c2ccccc2Cl)c2nc(C(F)(F)F)ccc12 [Compound A]
- Day 14 TGI [1]: 53%
- Day 14 TV (mean) ([1]; initial TV 249, vehicle 1069): 632 mm^3
- TGI ([1]; irinotecan 5 mg/kg IP 3 days on/4 days off): 53%
- Day 25 TGI [2]: 56%
- Tumor Regression Rate on Day 25 [2]: 0%
- Day 25 TV (mean) ([2]; initial TV 191, vehicle 1396): 726 mm^3
- TGI ([2]; irinotecan 5 or 10 mg/kg IP 3 days on/4 days off): 56%

Compound: NS(=O)(=O)c1ccc(S(=O)(=O)Nc2cccc3c(Cl)c[nH]c23)cc1 [Indisulam, N-(3-chloro-1H-indol-7-yl)benzene-1,4-disulfonamide]
- IC50 (SKGT4; SKGT4, Cmpd A pre-treatment 150 nM): 516 nM
- IC50 (SKGT4; SKGT4, DMSO pre-treatment): 1060 nM
- IC50 (Panc 03.27 Parent; [4]): 618 nM
- IC50 (Panc 03.27 Parent; PANC-03-27, DMSO pre-treatment): 814 nM
- IC50 [3, 4]: 873 nM
- IC50 ([3]; PANC-03-27, DMSO pre-treatment): 2170 nM
